ChEMBL document CHEMBL2163314, “Potent aminocyclitol glucocerebrosidase inhibitors are subnanomolar pharmacological chaperones for treating gaucher disease” (J Med Chem, 2012)
Calls of active or inactive are those of the source. The calls are words filed in the database; no cut-off is given here.

Tests used:
[1] = biological target: T1, Lysosomal acid glucosylceramidase (Homo sapiens) (UniProt P04062); settings: 50 uM
T1 sequence (whole entry): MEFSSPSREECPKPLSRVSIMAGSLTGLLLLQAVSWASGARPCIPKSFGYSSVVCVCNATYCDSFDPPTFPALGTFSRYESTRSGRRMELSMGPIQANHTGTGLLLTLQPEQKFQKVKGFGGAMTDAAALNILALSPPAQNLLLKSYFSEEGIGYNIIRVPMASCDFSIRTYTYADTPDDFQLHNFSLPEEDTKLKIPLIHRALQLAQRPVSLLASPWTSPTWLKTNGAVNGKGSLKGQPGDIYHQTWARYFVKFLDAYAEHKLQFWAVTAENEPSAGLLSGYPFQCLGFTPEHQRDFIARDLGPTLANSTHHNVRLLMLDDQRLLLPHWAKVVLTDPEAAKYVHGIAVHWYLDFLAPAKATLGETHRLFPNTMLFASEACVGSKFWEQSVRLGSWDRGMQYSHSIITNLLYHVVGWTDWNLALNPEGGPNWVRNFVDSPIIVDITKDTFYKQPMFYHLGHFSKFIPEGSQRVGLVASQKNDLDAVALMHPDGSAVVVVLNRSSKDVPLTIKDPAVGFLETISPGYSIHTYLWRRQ

[2] = biological target: Lysosomal alpha-glucosidase (Homo sapiens) (UniProt P10253); test: Inhibition of lysosomal alpha-glucosidase in human fibroblast at 5 uM after 24 hrs
[3] = biological target: T2, Beta-galactosidase (Bos taurus) (UniProt Q58D55); test: Inhibition of bovine liver beta-galactosidase at 100 uM
T2 sequence (whole entry): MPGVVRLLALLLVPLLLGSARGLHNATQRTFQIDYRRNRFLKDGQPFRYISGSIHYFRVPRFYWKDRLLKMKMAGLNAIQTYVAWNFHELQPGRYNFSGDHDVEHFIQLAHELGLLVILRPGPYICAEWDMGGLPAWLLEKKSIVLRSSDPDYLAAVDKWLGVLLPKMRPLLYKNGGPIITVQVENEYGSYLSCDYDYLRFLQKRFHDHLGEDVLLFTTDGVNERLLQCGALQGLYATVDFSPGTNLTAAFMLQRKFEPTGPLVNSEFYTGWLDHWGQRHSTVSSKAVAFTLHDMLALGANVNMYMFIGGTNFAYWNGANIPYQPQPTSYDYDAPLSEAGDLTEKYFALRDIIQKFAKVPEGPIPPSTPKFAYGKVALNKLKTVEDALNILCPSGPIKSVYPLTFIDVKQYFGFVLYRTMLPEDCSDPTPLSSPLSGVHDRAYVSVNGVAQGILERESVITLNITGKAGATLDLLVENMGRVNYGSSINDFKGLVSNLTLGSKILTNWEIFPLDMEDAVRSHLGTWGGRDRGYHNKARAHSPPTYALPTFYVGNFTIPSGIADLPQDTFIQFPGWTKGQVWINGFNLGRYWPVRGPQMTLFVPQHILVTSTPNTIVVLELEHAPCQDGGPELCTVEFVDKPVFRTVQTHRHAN

[4] = biological target: T3, Ceramide glucosyltransferase (Mus musculus) (UniProt O88693); test: Inhibition of GCS activity in mouse tissue homogenate at 250 uM
T3 sequence (whole entry): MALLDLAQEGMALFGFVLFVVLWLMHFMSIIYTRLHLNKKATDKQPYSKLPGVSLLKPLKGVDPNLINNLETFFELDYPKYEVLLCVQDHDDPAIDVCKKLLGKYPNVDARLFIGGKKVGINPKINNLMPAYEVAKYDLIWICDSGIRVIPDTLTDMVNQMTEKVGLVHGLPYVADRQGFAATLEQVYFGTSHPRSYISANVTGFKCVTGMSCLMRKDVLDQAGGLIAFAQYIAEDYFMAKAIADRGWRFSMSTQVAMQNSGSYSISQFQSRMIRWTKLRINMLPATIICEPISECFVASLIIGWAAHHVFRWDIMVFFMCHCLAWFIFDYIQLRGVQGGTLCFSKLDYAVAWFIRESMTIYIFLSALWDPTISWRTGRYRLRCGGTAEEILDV

[5] = Cytotoxicity against human fibroblasts at 50 uM; type: cell-based; settings: fibroblast
[6] = biological target: T3, Ceramide glucosyltransferase (Mus musculus); test: Inhibition of GCS activity in mouse tissue homogenate at 50 uM
[7] = Cytotoxicity against human fibroblasts at 5 uM; type: cell-based; settings: fibroblast
[8] = biological target: T4, Alpha-galactosidase A (Homo sapiens) (UniProt P06280); test: Inhibition of lysosomal alpha-galactosidase in human fibroblast at 5 uM after 24 hrs
T4 sequence (whole entry): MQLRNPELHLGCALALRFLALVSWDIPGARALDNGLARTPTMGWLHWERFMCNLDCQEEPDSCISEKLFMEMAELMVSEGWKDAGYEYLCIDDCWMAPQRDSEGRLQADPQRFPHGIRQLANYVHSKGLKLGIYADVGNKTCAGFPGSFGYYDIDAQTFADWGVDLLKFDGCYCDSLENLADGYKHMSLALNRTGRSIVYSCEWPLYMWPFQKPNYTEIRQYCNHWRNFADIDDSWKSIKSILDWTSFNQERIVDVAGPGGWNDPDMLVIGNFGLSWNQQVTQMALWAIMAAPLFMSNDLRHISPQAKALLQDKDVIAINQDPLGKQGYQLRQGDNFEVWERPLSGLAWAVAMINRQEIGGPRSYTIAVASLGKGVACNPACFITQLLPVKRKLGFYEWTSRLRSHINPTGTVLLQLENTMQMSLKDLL

inhibition [2]	inhibition [3]	inhibition [4]	inhibition [6]	inhibition [8]	Structure (SMILES)	inhibition [1]	Activity [5]	Activity [7]
inactive	74%	56%	inactive	inactive	CCCCCCCCCN[C@H]1[C@H](O)[C@@H](O)[C@H](O)[C@@H](O)[C@H]1OCCCCCCCCC.Cl	–	Toxic	Non-toxic
< 16%	–	56%	inactive	< 16%	CCCCCCCCCN[C@H]1[C@H](O)[C@@H](O)[C@H](O)[C@@H](O)[C@@H]1OCCCCCCCCC.Cl	–	Toxic	Non-toxic

More lines, now with the values behind:

Structure (SMILES)	inhibition [2]	inhibition [3]	inhibition [4]	inhibition [6]	inhibition [8]	inhibition [1]	Activity [5]	Activity [7]
CCCCCCCCCN[C@H]1[C@H](O)[C@@H](O)[C@H](O)[C@@H](O)[C@@H]1O	–	–	–	–	–	23%	–	–
CCCCCCCCCN(CCCCCCCCC)[C@@H]1[C@H](O)[C@H](O)[C@@H](O)[C@H](O)[C@H]1O.Cl	< 16%	–	56%	inactive	< 16%	–	Toxic	Non-toxic
CCCCCCCCCN[C@H]1[C@H](O)[C@@H](O)[C@H](O)[C@@H](O)[C@@H]1OC.Cl	–	–	–	–	–	23%	–	–
CCCCCCCCCN[C@@H]1[C@H](O)[C@@H](O)[C@H](O)[C@@H](O)[C@@H]1O	–	74%	–	–	–	23%	–	–
CCCCCCCCCO[C@H]1[C@@H](N)[C@H](O)[C@@H](O)[C@H](O)[C@H]1O.Cl	–	74%	–	–	–	–	–	–
